Entries after “also recorded” stand apart in the source; their conditions may differ.
Experiments:
[1] = target: T1, protein arginine methyltransferase (PRMT) (Homo sapiens, UniProt Q86X55); experiment: Affinity purification and STRING analysis-based proteomics with SH-SY5Y cell lysates; assay type: binding; conditions: compound clicked to agarose magnetic beads
T1 construct: proteins from human neuroblastoma SH-SY5Y; endogenous in cells; host or cells: SH-SY5Y human neuroblastoma cell lysate
T1 sequence (Q86X55 1-608): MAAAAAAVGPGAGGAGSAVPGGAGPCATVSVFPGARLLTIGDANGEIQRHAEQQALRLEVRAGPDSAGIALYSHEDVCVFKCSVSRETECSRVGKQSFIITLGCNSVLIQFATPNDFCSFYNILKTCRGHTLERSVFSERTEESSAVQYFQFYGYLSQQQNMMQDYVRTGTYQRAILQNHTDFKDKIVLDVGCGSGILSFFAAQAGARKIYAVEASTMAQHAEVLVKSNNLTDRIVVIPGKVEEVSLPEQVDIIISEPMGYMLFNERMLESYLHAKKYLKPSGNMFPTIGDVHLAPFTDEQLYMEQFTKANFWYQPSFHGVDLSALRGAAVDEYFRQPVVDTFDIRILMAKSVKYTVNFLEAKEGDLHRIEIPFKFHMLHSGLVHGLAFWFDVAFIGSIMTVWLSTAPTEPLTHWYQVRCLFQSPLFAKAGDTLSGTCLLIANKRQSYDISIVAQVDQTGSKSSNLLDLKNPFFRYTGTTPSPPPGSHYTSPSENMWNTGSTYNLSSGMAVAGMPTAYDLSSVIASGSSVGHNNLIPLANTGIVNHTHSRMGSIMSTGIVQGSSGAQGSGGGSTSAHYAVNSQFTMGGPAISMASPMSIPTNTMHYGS
Method: To assist in identification of possible protein interactions of our SirT1 enhancers, affinity purification and STRING analysis-based proteomics was used, as described in Supplementary Methods. […] To assess effects of various PRMTs 1, 4, 5, 7 and 8 on SirT1, N2a-E4 cells were transfected with each of these PRMTs as described in Supplementary Methods. […]
supernatants were transferred to new tubes and lyophilized. Samples were reconstituted in 100 µL of 50/50/0.1 (Water/Acetonitrile/Formic Acid) prior to analysis via liquid chromatography-tandem mass spectrometry (LC-MS/MS).
Normalized chromatographic peak areas was plotted at each time point and the half-life (T1/2) of compound in liver microsomes was determined by using the trendline equation to calculate the time at which compound abundance was 50% of that at timepoint 0 (T0).
Kinetic solubility was assessed by separately diluting a test compound solution (10 mM, 100% DMSO) into the aqueous buffer (PBS pH 7.4) and DMSO at 100 μM, 100 μL total volume.
The solutions were then incubated at 37°C for 90 min and centrifuged (16000xg, 5 min). An aliquot (50 µL) of each supernatant was analyzed by LC-MS/MS.
Five standard concentrations (100, 10, 1, 0.1, and 0, DMSO) in duplicates were incubated at 37°C for 90 min and centrifuged (16000xg, 5 min). Aliquots (50 µL) of supernatant were analyzed by LC-MS/MS to create the standard curve.
Table S2. […]

[2] = system: SirT1 mRNA in Kelly cells; experiment: SirT1 mRNA in Kelly neuroblastoma cells; assay type: cell-based, human; conditions: 5 µM, 24 h, vs DMSO control
Method: Human neuroblastoma ‘Kelly’ cells (genotype APOE3/APOE4) were plated in 96-well plates at 50K cells per well and were grown overnight in RPMI 1640 supplemented with 2 mM Glutamine, 10% FBS and 1% Pen-Strep. Cells were treated with 5 µM DDL-214, -218, or -219; or DMSO vehicle (n = 8 per compound). Twenty-four hours later, medium was removed, cells washed and lysed as described above for N2a-E4 cells.
Total RNA was isolated from cells or brain tissue (Qiagen RNEasy kit). Total RNA (0.5–1.0 µg) mRNA was then converted to cDNA (SuperScript™ III First-Strand Synthesis SuperMix kit; Thermo Fisher), and gene mRNA levels were measured using a gene-specific qRT-PCR Taqman assays (Thermo Fisher). Gene mRNA levels were normalized to GAPDH mRNA levels measured either in the same cDNA sample or in the same qPCR reaction using multiplexing of gene-of-interest/VIC and GAPDH/FAM, normalized by the delta-delta-Ct method.

SMILES	protein interaction found by affinity purification [1]	SirT1 mRNA [2]
C#Cc1ccc(CC(C)(C)NC(=O)[C@H](C)N)cc1 [DDL-220]	a protein arginine methyltransferase (PRMT) interacts with DDL-220	–
CC(N)C(=O)OC(C)(C)Cc1ccncc1 (centres unmarked) [DDL-218]	–	greatest increase; also recorded: significantly increased SirT1 mRNA

Source: article PMC12019328, “Discovery of an ApoE4-targeted small-molecule SirT1 enhancer for the treatment of Alzheimer’s disease” (Scientific Reports, 2025)
